In patent EP0435682A2, “The use of inclusion complexes of prostaglandins with cyclodextrins in the treatment of ocular hypertension” (ALLERGAN, INC., priority 1989, dated 1991):
Marks after values point to notes of the source that are not given here.

Tested on: New Zealand Albino rabbits
Assay: Intraocular pressure by applanation pneumatonometry after topical application to one eye
Format: in vivo
Conditions: 0.1% (w/v) solution, 25 µl to the surface of one eye
Procedure: Prostaglandin F2α TRIS salt was dissolved in either distilled water or in a 5% aqueous hydroxypropyl-β-cyclodextrin solution, to provide 0.1% (w/v) solutions. Two groups of experimental New Zealand Albino rabbits, containing 6 and 8 rabbits, respectively, were treated by administering 25µℓ of each solution to the surface of one eye. The contralateral eye received vehicle as a control. Intraocular pressure (IOP) was measured by applanation pneumatonometry model (Model 3ORT, manufactured by Digilab) at the time of administration, and at intervals of 1, 2, 3, 4, and 6 hours thereafter.

Substance: Prostaglandin F2α TRIS salt [Prostaglandin F2α (in aqueous)]
- CHANGES IN INTRAOCULAR PRESSURE (mmHg) AT PREDETERMINED TIMES (HR) (1.0 HR after administration): -6.3* mmHg
- CHANGES IN INTRAOCULAR PRESSURE (mmHg) AT PREDETERMINED TIMES (HR) (2.0 HR after administration): -3.0 mmHg
- CHANGES IN INTRAOCULAR PRESSURE (mmHg) AT PREDETERMINED TIMES (HR) (3.0 HR after administration): -3.0 mmHg
- CHANGES IN INTRAOCULAR PRESSURE (mmHg) AT PREDETERMINED TIMES (HR) (4.0 HR after administration): -1.5 mmHg
- CHANGES IN INTRAOCULAR PRESSURE (mmHg) AT PREDETERMINED TIMES (HR) (6.0 HR after administration): 0 mmHg
